This is an account of results in ChEMBL document CHEMBL1130724, “Synthesis and biological activity of [Tic5] didemnin B” (Bioorg Med Chem Lett, 1998).

What is called IC50 is the midpoint of a concentration-inhibition curve. High values mean lower potency, low ones higher potency.

For this assay, the species on record is Oryctolagus cuniculus. Briefly: Compound was tested for inhibitory effect on protein biosynthesis in rabbit reticulocyte lysates. The assay is classed as functional.

`CC[C@H](C)[C@H]1NC(=O)[C@@H](NC(=O)[C@@H](CC(C)C)N(C)C(=O)C2CCCN2C(=O)[C@H](C)O)[C@@H](C)OC(=O)[C@H](CC(C)C)N(C)C(=O)[C@@H]2CCCN2C(=O)[C@H](CC(C)C)NC(=O)[C@@H](C)C(=O)[C@H](C(C)C)OC(=O)C[C@@H]1O` (some centres not stated) [[N-ME LEU5] DIDEMNIN B]: the half-inhibitory concentration (IC50) turned out to be 9 µM. To `CC[C@H](C)[C@H]1NC(=O)[C@@H](NC(=O)[C@@H](CC(C)C)N(C)C(=O)C2CCCN2C(=O)[C@H](C)O)[C@@H](C)OC(=O)[C@@H]2Cc3ccccc3CN2C(=O)[C@@H]2CCCN2C(=O)[C@H](CC(C)C)NC(=O)[C@@H](C)C(=O)[C@H](C(C)C)OC(=O)C[C@@H]1O` (some centres not stated) belongs 2.68 µM.
